{"source": "patent US20140343000A1", "about": "(priority 2011, published 2014)", "data": [{"tested_on": "recombinant NL4-3 virus (Renilla luciferase in nef, Gag P373S; NLRluc) in MT-2 cells", "test": "whole plant or invertebrate", "assay_type": "cell-based, HIV", "conditions": "Renilla, NL43, luciferase activity in cells infected for 4-5 days with NLRluc recombinants, serial dilutions of inhibitor; class symbols (key in Table 1); read-out: EC50", "in_short": "(§1)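 Virus from 293T transfection, titered in MT-2 by luciferase. MT-2 (RPMI, 10% HI-FBS) infected ± inhibitor serial dilutions, 4-5 d. Readout: Dual Luciferase premix (lysis:reagent:Stop & Glo 2:1:1), immediate luminescence.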", "units": {"EC50": "µM"}, "values": [{"smiles": "C=C(C)[C@@H]1CC[C@]2(NCC)CC[C@]3(C)[C@H](CC[C@@H]4[C@@]5(C)CC=C(c6ccc(C(=O)O)cc6)C(C)(C)[C@@H]5CC[C@]43C)[C@@H]12", "note": "[Example 180, 4-((1R,3aS,5aR,5bR,7aR,11aS,11bR,13aR,13bR)-3a-(ethylamino)-5a,5b,8,8,11a-pentamethyl-1-(prop-1-en-2-yl)-2,3,3a,4,5,5a,5b,6,7,7a,8,11,11a,11b,12,13,13a,13b-octadecahydro-1H-cyclopenta[a]chrysen-9-yl)benzoic acid]", "EC50": "< 0.1"}, {"smiles": "C=C(C)[C@@H]1CC[C@]2(NC(=O)NCCN(C)CCO)CC[C@]3(C)[C@H](CC[C@@H]4[C@@]5(C)CC=C(c6ccc(C(=O)O)cc6)C(C)(C)[C@@H]5CC[C@]43C)[C@@H]12", "note": "[Example 23, 4-((1R,3aS,5aR,5bR,7aR,11aS,11bR,13aR,13bR)-3a-(3-(2-((2-hydroxyethyl)(methyl)amino)ethyl)ureido)-5a,5b,8,8,11a-pentamethyl-1-(prop-1-en-2-yl)-2,3,3a,4,5,5a,5b,6,7,7a,8,11,11a,11b,12,13,13a,13b-octadecahydro-1H-cyclopenta[a]chrysen-9-yl)benzoic acid]", "EC50": "< 0.1"}, {"smiles": "C=C(C)[C@@H]1CC[C@]2(NCCN3CCN(S(=O)(=O)C4CC4)CC3)CC[C@]3(C)[C@H](CC[C@@H]4[C@@]5(C)CC=C(c6ccc(C(=O)O)cc6)C(C)(C)[C@@H]5CC[C@]43C)[C@@H]12", "note": "[Example B22, 4-((1R,3aS,5aR,5bR,7aR,11aS,11bR,13aR,13bR)-3a-((2-(4-(cyclopropylsulfonyl)piperazin-1-yl)ethyl)amino)-5a,5b,8,8,11a-pentamethyl-1-(prop-1-en-2-yl)-2,3,3a,4,5,5a,5b,6,7,7a,8,11,11a,11b,12,13,13a,13b-octadecahydro-1H-cyclopenta[a]chrysen-9-yl)benzoic acid]", "EC50": "< 0.1"}, {"smiles": "C=C(C)[C@@H]1CC[C@]2(NCCCN(C)C)CC[C@]3(C)[C@H](CC[C@@H]4[C@@]5(C)CC=C(c6ccc(C(=O)O)cc6)C(C)(C)[C@@H]5CC[C@]43C)[C@@H]12", "note": "[Example 169, 4-((1R,3aS,5aR,5bR,7aR,11aS,11bR,13aR,13bR)-3a-(3-(dimethylamino)propylamino)-5a,5b,8,8,11a-pentamethyl-1-(prop-1-en-2-yl)-2,3,3a,4,5,5a,5b,6,7,7a,8,11,11a,11b,12,13,13a,13b-octadecahydro-1H-cyclopenta[a]chrysen-9-yl)benzoic acid]", "EC50": "< 0.1"}, {"smiles": "C=C(C)[C@@H]1CC[C@]2(NCCCN3CCS(=O)(=O)CC3)CC[C@]3(C)[C@H](CC[C@@H]4[C@@]5(C)CC=C(c6ccc(C(=O)O)cc6)C(C)(C)[C@@H]5CC[C@]43C)[C@@H]12", "note": "[Example 144, 4-[(1R,3aS,5aR,5bR,7aR,11aS,11bR,13aR,13bR)-3a-[[3-(1,1-dioxido-4-thiomorpholinyl)propyl]amino]-2,3,3a,4,5,5a,5b,6,7,7a,8,11,11a,11b,12,13,13a,13b-octadecahydro-5a,5b,8,8,11a-pentamethyl-1-(1-methylethenyl)-1H-cyclopenta[a]chrysen-9-yl]-benzoic acid]", "EC50": "< 0.1"}]}, {"tested_on": "recombinant NL4-3 virus (Renilla luciferase in nef, Gag P373S; NLRluc) in MT-2 cells", "test": "whole plant or invertebrate", "assay_type": "cell-based, HIV", "conditions": "Renilla, NL43, luciferase activity in cells infected for 4-5 days with NLRluc recombinants, serial dilutions of inhibitor; numeric values; read-out: EC50", "in_short": "as §1", "units": {"EC50": "µM"}, "values": [{"smiles": "C=C(C)[C@@H]1CC[C@]2(NC(=O)NCCN3CCCC3=O)CC[C@]3(C)[C@H](CC[C@@H]4[C@@]5(C)CC=C(c6ccc(C(=O)O)cc6)C(C)(C)[C@@H]5CC[C@]43C)[C@@H]12", "note": "[Example 28, 4-((1R,3aS,5aR,5bR,7aR,11aS,11bR,13aR,13bR)-5a,5b,8,8,11a-pentamethyl-3a-(3-(2-(2-oxopyrrolidin-1-yl)ethyl)ureido)-1-(prop-1-en-2-yl)-2,3,3a,4,5,5a,5b,6,7,7a,8,11,11a,11b,12,13,13a,13b-octadecahydro-1H-cyclopenta[a]chrysen-9-yl)benzoic acid]", "EC50": 0.004}]}]}
